For this test, the target named is JAK2 (Homo sapiens (Human), UniProt O60674). The experiment in a line: JAK2 Tyrosine Kinase Assay. It counts as biochemical. The conditions noted are these: ATP 30 μM; JAK2 1 nM; 60 min at room temperature. Here is the method: JAK2 Tyrosine Kinase Assay
The assays were performed in V-bottom 384-well plates. […] The reaction was initiated by the combination of JAK2 with substrates and test compounds. The reaction was incubated at room temperature for 60 min. and terminated by adding 45 μl of 35 mM EDTA to each sample. The reaction mixture was analyzed on the Caliper LABCHIP® 3000 by electrophoretic separation of the fluorescent substrate and phosphorylated product. […] Compounds were dissolved at 10 mM in dimethylsulfoxide (DMSO) and evaluated at eleven concentrations, each in duplicate. IC50 values were derived by non-linear regression analysis

Here are results for 34 compounds from patent publication US8815840B2, “Carbazole and carboline kinase inhibitors” (Bristol-Myers Squibb Company, priority 2008, dated 2014).

Structures can show the parent of a compound that is named as a salt.

Sequence of JAK2 (O60674 whole entry): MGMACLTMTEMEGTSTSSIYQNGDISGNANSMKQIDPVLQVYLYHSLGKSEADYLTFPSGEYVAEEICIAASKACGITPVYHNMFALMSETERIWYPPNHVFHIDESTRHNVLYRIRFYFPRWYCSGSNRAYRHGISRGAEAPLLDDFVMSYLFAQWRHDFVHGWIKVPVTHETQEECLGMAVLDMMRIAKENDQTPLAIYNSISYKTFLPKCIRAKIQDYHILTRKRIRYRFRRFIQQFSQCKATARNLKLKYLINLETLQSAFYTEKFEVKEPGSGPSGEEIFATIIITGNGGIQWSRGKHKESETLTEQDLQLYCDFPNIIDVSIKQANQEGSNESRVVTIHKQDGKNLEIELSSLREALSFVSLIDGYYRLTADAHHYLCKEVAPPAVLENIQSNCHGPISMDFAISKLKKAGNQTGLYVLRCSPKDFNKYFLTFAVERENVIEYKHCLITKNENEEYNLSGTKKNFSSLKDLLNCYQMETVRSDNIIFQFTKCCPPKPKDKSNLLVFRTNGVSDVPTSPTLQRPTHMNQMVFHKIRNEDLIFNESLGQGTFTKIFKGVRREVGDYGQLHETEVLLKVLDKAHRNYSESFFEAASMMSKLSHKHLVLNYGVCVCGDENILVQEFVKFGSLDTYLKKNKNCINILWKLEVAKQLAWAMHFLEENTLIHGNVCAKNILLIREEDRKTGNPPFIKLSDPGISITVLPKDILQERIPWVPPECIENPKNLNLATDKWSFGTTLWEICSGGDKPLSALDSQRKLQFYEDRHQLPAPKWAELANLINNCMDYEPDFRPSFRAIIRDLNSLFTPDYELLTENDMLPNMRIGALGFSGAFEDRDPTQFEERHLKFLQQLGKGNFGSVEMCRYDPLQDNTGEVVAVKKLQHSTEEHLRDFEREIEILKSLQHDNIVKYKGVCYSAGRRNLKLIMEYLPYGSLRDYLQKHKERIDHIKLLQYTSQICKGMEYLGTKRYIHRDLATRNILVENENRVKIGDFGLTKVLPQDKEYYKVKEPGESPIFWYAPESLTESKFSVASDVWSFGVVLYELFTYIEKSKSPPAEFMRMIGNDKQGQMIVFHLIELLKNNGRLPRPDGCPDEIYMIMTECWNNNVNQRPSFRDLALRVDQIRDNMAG

Regarding `NC(=O)c1cc(-c2ncccn2)cc2c1[nH]c1cc(C(=O)N3CCOCC3)ccc12` [Example 430, 7-(Morpholine-4-carbonyl)-3-(pyrimidin-2-yl)-9H-carbazole-1-carboxamide], the IC50 (as a rule, the concentration that gives 50% inhibition) came to 1 nM.
With `COCCOc1ccc(-c2cc(C(N)=O)c3[nH]c4cc(N5CCOCC5)ccc4c3n2)cc1Cl` [Example 357, 2-(3-chloro-4-(2-methoxyethoxy)phenyl)-7-morpholino-5H-pyrido[3,2-b]indole-4-carboxamide], the IC50 came to 6 nM.
The same measure for `COc1ccc(-c2cc(C(N)=O)c3[nH]c4cc(C(=O)N5CC[C@H](N(C)C)C5)ccc4c3n2)cc1F` [Example 211, (S)-7-(3-(Dimethylamino)pyrrolidine-1-carbonyl)-2-(3-fluoro-4-methoxyphenyl)-5H-pyrido[3,2-b]indole-4-carboxamide]: less than 1 nM; for `CC(C)Oc1ccc2[nH]c3c(C(N)=O)cc(-c4ccc(Cl)c(Cl)c4)cc3c2c1` [Example 140, 3-(3,4-Dichlorophenyl)-6-isopropoxy-9H-carbazole-1-carboxamide]: 150 nM.
As to `NC(=O)c1cc(-c2cccc(Cl)c2)cc2c1[nH]c1ccc(C(=O)N3CCOCC3)cc12` [Example 15, 3-(3-chlorophenyl)-6-(morpholine-4-carbonyl)-9H-carbazole-1-carboxamide], the IC50 turned out to be 1 nM.
Consider `CC(C)(C)N1CCN(Cc2ccc3c(c2)[nH]c2c(C(N)=O)cc(-c4cccc(Cl)c4)nc23)CC1` [Example 256, 7((4-tert-Butyl-1-piperazinyl)methyl)-2-(3-chlorophenyl)-5H-pyrido[3,2-b]indole-4-carboxamide], for which the IC50 was found to be 1 nM.
In the case of `NC(=O)c1cc(-c2ccc(N3CCOCC3)nc2)nc2c1[nH]c1cc(N3CCOCC3)ccc12` [Example 504, 7-morpholino-2-(6-morpholinopyridin-3-yl)-5H-pyrido[3,2-b]indole-4-carboxamide], the IC50 was 1 nM.
With `COc1cc(-c2cc(C(N)=O)c3[nH]c4cc(C(=O)N5CCN(C)CC5)ccc4c3c2)ccc1NC(=O)OC(C)(C)C` [Example 73, tert-butyl (4-(1-carbamoyl-7-((4-methyl-1-piperazinyl)carbonyl)-9H-carbazol-3-yl)-2-methoxyphenyl)carbamate], the IC50 amounted to 160 nM.
Turning to `CN(C)c1ccc(-c2cc(C(N)=O)c3[nH]c4cc(N5CCOCC5)ccc4c3n2)cn1` [Example 503, 2-(6-(dimethylamino)pyridin-3-yl)-7-morpholino-5H-pyrido[3,2-b]indole-4-carboxamide], the IC50 amounted to 1 nM.
Regarding `CN1CCN(C(=O)c2ccc3c(c2)[nH]c2c(C(N)=O)cc(-c4ccccc4)cc23)CC1` [Example 80, 7-((4-methyl-1-piperazinyl)carbonyl)-3-phenyl-9H-carbazole-1-carboxamide], the IC50 worked out at 6 nM.
Turning to `Cc1noc(C)c1-c1cc(C(N)=O)c2[nH]c3cc(C(=O)N4CCOCC4)ccc3c2n1` [Example 461, 2-(3,5-dimethylisoxazol-4-yl)-7-(morpholine-4-carbonyl)-5H-pyrido[3,2-b]indole-4-carboxamide], the IC50 was determined as 146 nM.
Take `COc1ccc(-c2cc(C(N)=O)c3[nH]c4cc(N5CCOCC5)ccc4c3n2)cc1F` [Example 344, 2-(3-fluoro-4-methoxyphenyl)-7-morpholino-5H-pyrido[3,2-b] indole-4-carboxamide]: the IC50 turned out to be 1 nM.
Regarding `NC(=O)c1cc(-c2ccc(C3CC3)nc2)nc2c1[nH]c1cc(N3CCOCC3)ccc12` [Example 499, 2-(6-cyclopropylpyridin-3-yl)-7-morpholino-5H-pyrido[3,2-b]indole-4-carboxamide], the IC50 worked out at 1 nM.
Turning to `N#Cc1cc(-c2cc(C(N)=O)c3[nH]c4cc(C(=O)N5CCOCC5)ccc4c3c2)ccc1F` [Example 563, 3-(3-cyano-4-fluorophenyl)-7-(4-morpholinylcarbonyl)-9H-carbazole-1-carboxamide], the IC50 was 1010 nM.
The same measure for `NC(=O)c1cc(-c2ccc(Cl)c(Cl)c2)cc2c1[nH]c1ccc(C(=O)NCCN3CCOCC3)cc12` [Example 51, 3-(3,4-dichlorophenyl)-N^6-(2-(4-morpholinyl)ethyl)-9H-carbazole-1,6-dicarboxamide]: 6 nM.
Under `CNC(=O)c1cc(-c2ccc(OC)cc2)nc2c1[nH]c1cc(OC)ccc12` [Example 128, 7-Methoxy-2-(4-methoxyphenyl)-N-methyl-5H-pyrido[3,2-b]indole-4-carboxamide] stands 1230 nM; under `NC(=O)c1cc(-c2ccc(Cl)c(Cl)c2)cc2c1[nH]c1ccc(C(=O)N3CCOC(CO)C3)cc12` (stereo not shown) [Example 180, 3-(3,4-dichlorophenyl)-6-(2-(hydroxymethyl)morpholine-4-carbonyl)-9H-carbazole-1-carboxamide], 2 nM.
Consider `NC(=O)c1cc(-c2ccc(Cl)cc2)nc2c1[nH]c1cc(C(=O)N3CCOCC3)ccc12` [Example 227, 2-(4-chlorophenyl)-7-(4-morpholinylcarbonyl)-5H-pyrido[3,2-b]indole-4-carboxamide], for which the IC50 was found to be 2 nM.
As for `COc1cc(-c2cc(C(N)=O)c3[nH]c4ccc(C(=O)N5CCOC(CO)C5)cc4c3c2)cc(OC)c1OC` (stereo not shown) [Example 183, 6-(2-(hydroxymethyl)morpholine-4-carbonyl)-3-(3,4,5-trimethoxyphenyl)-9H-carbazole-1-carboxamide], the IC50 was 160 nM.
As to `NC(=O)c1cc(-c2ccc(CN3CCOCC3)c(Cl)c2)cc2c1[nH]c1cc(-c3cccnc3)ccc12` [Example 481, 3-(3-Chloro-4-(morpholinomethyl)phenyl)-7-(pyridin-3-yl)-9H-carbazole-1-carboxamide], the half-inhibitory concentration (IC50) stood at 133 nM.
Under `COc1cccc(-c2cc(C(N)=O)c3[nH]c4ccncc4c3c2)c1` [Example 203, 8-(3-Methoxyphenyl)-5H-pyrido[4,3-b]indole-6-carboxamide, HCl] stands 34 nM.
Consider `Cn1nc(C(F)(F)F)cc1-c1cc(C(N)=O)c2[nH]c3cc(C(=O)N4CCOCC4)ccc3c2n1` [Example 464, 2-(1-methyl-3-(trifluoromethyl)-1H-pyrazol-5-yl)-7-(morpholine-4-carbonyl)-5H-pyrido[3,2-b]indole-4-carboxamide], for which the IC50 was 314 nM.
Regarding `NC(=O)c1cc(-c2ccc(F)c(Cl)c2)cc2c1[nH]c1cc(C(=O)N3CCOCC3)ccc12` [Example 545, 3-(3-Chloro-4-fluorophenyl)-7-(morpholine-4-carbonyl)-9H-carbazole-1-carboxamide], the IC50 came to 885 nM.
Take `NC(=O)c1cc(-c2cc(CN3CCOCC3)co2)nc2c1[nH]c1cc(N3CCOCC3)ccc12` [Example 374, 7-morpholino-2-(4-(mor-pholinomethyl)furan-2-yl)-5H-pyrido[3,2-b]indole-4-carboxamide]: the IC50 came to 6 nM.
As for `NC(=O)c1cc(-c2ccc3scnc3c2)nc2c1[nH]c1cc(C(=O)N3CCOCC3)ccc12` [Example 456, 2-(benzo[d]thiazol-5-yl)-7-(morpholine-4-carbonyl)-5H-pyrido[3,2-b]indole-4-carboxamide], the IC50 was 1 nM.
`COc1cccc(-c2cc(C(N)=O)c3[nH]c4cc(C(=O)N5C[C@@H]6C[C@H]5CO6)ccc4c3c2)c1` [Example 124, 3-(3-methoxyphenyl)-7-((1S,4S)-2-oxa-5-azabicyclo[2.2.1]hept-5-ylcarbonyl)-9H-carbazole-1-carboxamide]: the 50% inhibitory concentration (IC50) amounted to 6 nM.
As for `COc1ccc(-c2cc(C(N)=O)c3[nH]c4ccc(C(=O)N5C[C@@H]6C[C@H]5CO6)cc4c3c2)cc1F` [Example 196, 6-((1S,4S)-2-oxa-5-azabicyclo[2.2.1]heptane-5-carbonyl)-3-(3-fluoro-4-methoxyphenyl)-9H-carbazole-1-carboxamide], the IC50 was determined as 1 nM.
The same measure for `Cc1cc(-c2cc(C(N)=O)c3[nH]c4cc(N5CCOCC5)ccc4c3n2)ccc1Cl` [Example 501, 2-(4-chloro-3-methylphenyl)-7-morpholino-5H-pyrido[3,2-b]indole-4-carboxamide]: 7 nM.
On to `COCCN1CCN(Cc2ccc(-c3cc(C(N)=O)c4[nH]c5cc(N6CCOCC6)ccc5c4n3)s2)CC1` [Example 373, 2-(5-((4-(2-methoxyethyl)piperazin-1-yl)methyl)thiophen-2-yl)-7-morpholino-5H-pyrido[3,2-b]indole-4-carboxamide], for which the IC50 turned out to be 6 nM.
Under `Cc1cc(-c2cc(C(N)=O)c3[nH]c4cc(C5CCN(C(=O)OC(C)(C)C)CC5)ccc4c3c2)ccc1CN1CCOCC1` [Example 486, tert-Butyl 4-(8-carbamoyl-6-(3-methyl-4-(morpholinomethyl)phenyl)-9H-carbazol-2-yl)piperidine-1-carboxylate] stands 818 nM.
On to `COc1ccc(-c2cc(C(N)=O)c3[nH]c4ccc(C(=O)N5CCC[C@H](O)C5)cc4c3c2)cc1F` [Example 190, (S)-3-(3-fluoro-4-methoxyphenyl)-6-(3-hydroxypiperidine-1-carbonyl)-9H-carbazole-1-carboxamide], for which the half-inhibitory concentration (IC50) came out at 2 nM.
Consider `NC(=O)c1cc(-c2ccc(OC(F)(F)F)cc2)cc2c1[nH]c1cc(C(=O)N3CCOCC3)ccc12` [Example 151, 7-(4-morpholinylcarbonyl)-3-(4-(trifluoromethoxy)phenyl)-9H-carbazole-1-carboxamide], for which the IC50 came out at 6 nM.
`Cn1ncc2ccc(-c3cc(C(N)=O)c4[nH]c5cc(C(=O)N6CCOCC6)ccc5c4n3)cc21` [Example 454, 2-(1-methyl-1H-indazol-6-yl)-7-(morpholine-4-carbonyl)-5H-pyrido[3,2-b]indole-4-carboxamide]: the IC50 worked out at 7 nM.
With `COc1cccc(-c2cc(C(N)=O)c3[nH]c4cc(C(=O)N5CCN(Cc6cccnc6)CC5)ccc4c3c2)c1` [Example 88, 3-(3-methoxyphenyl)-7-((4-(3-pyridinylmethyl)-1-piperazinyl)carbonyl)-9H-carbazole-1-carboxamide], the 50% inhibitory concentration (IC50) amounted to 6 nM.
